system: Cucumber; assay: Culture dish method (general screening); assay type: in vivo; settings: 100 mg/L; 7 days; root
Description: (§3) Culture dish method (general screening): The test targets were radish, cucumber, rape, wheat, sorghum and barnyard grass; the seeds of wheat, sorghum and radish were germinated in advance, and the uniform emerge-germinating seeds were used in the test.

SMILES | inhibition rate, Cucumber Root [%]
CON=C(C(=O)OC)c1ccccc1COc1cccc(-c2nc(Cl)c(Cl)cc2Cl)c1 [Compound 99] | 70

same assay, conditions: 100 mg/L; 7 days; stem

SMILES | inhibition rate, Cucumber Stem [%]
CON=C(C(=O)OC)c1ccccc1COc1cccc(-c2nc(Cl)c(Cl)cc2Cl)c1 [Compound 99] | 0

system: Mustard; assay: not given; settings: Postemergence spraying; 150 g a.i./ha; 30 days; Table 9

SMILES | efficiency, Mustard [%]
CON=C(C(=O)OC)c1ccccc1COc1cccc(-c2nc(Cl)c(Cl)cc2Cl)c1 [Compound 99] | 60

same assay, conditions: Pre-emergence soil treatment; 150 g a.i./ha; 30 days; Table 9

SMILES | efficiency, Mustard [%]
CON=C(C(=O)OC)c1ccccc1COc1cccc(-c2nc(Cl)c(Cl)cc2Cl)c1 [Compound 99] | 0

system: Eclipta prostrata; assay: Potted plants live body test; assay type: in vivo; settings: Postemergence spraying; 150 g a.i./ha; 30 days; Table 9
Description: (§1) The raw drug which was selected from the compounds in table 1 was weighed using an analytical balance (0.0001 g), and dissolved in DMF containing 1 wt % Tween-80 emulsifier to prepare a mother liquor of raw drug with a mass concentration of 1.0˜5.0%, and then diluted with distilled water, to prepare preparations at desired concentrations according to the ratio of ingredients in Examples 8, 9 and 10.
(§2) The test targets were mustard, small quinoa, Abutilon, amaranthus retroflexus, Eclipta prostrata, crabgrass, dog point. A pot with a diameter of 7.5 cm was used, filled with composite soil (garden soil:nursery matrix, 1:2, v/v) to ¾ of the pot, then the above […] kinds of weeds targets were directly seeded (germination rate ≧85%), covered with soil at a thickness of 0.2 cm. When the weeds grew to 3-leaf stage, pre-emergence soil treatment for weeds planting, and then spraying was performed.

SMILES | efficiency, Eclipta prostrata [%]
CON=C(C(=O)OC)c1ccccc1COc1cccc(-c2nc(Cl)c(Cl)cc2Cl)c1 [Compound 99] | 25

same assay, conditions: Pre-emergence soil treatment; 150 g a.i./ha; 30 days; Table 9

SMILES | efficiency, Eclipta prostrata [%]
CON=C(C(=O)OC)c1ccccc1COc1cccc(-c2nc(Cl)c(Cl)cc2Cl)c1 [Compound 99] | 0

system: Abutilon; assay: Potted plants live body test; assay type: in vivo; settings: Postemergence spraying; 150 g a.i./ha; 30 days; Table 9
Description: as §1, §2

SMILES | efficiency, Abutilon [%]
CON=C(C(=O)OC)c1ccccc1COc1cccc(-c2nc(Cl)c(Cl)cc2Cl)c1 [Compound 99] | 20

same assay, conditions: Pre-emergence soil treatment; 150 g a.i./ha; 30 days; Table 9

SMILES | efficiency, Abutilon [%]
CON=C(C(=O)OC)c1ccccc1COc1cccc(-c2nc(Cl)c(Cl)cc2Cl)c1 [Compound 99] | 0

system: Crabgrass; assay: Potted plants live body test; assay type: in vivo; settings: Postemergence spraying; 150 g a.i./ha; 30 days; Table 9
Description: as §1, §2

SMILES | efficiency, Crabgrass [%]
CON=C(C(=O)OC)c1ccccc1COc1cccc(-c2nc(Cl)c(Cl)cc2Cl)c1 [Compound 99] | 0

same assay, conditions: Pre-emergence soil treatment; 150 g a.i./ha; 30 days; Table 9

SMILES | efficiency, Crabgrass [%]
CON=C(C(=O)OC)c1ccccc1COc1cccc(-c2nc(Cl)c(Cl)cc2Cl)c1 [Compound 99] | 0

system: Dog point; assay: Potted plants live body test; assay type: in vivo; settings: Postemergence spraying; 150 g a.i./ha; 30 days; Table 9
Description: as §1, §2

SMILES | efficiency, Dog point [%]
CON=C(C(=O)OC)c1ccccc1COc1cccc(-c2nc(Cl)c(Cl)cc2Cl)c1 [Compound 99] | 0

same assay, conditions: Pre-emergence soil treatment; 150 g a.i./ha; 30 days; Table 9

SMILES | efficiency, Dog point [%]
CON=C(C(=O)OC)c1ccccc1COc1cccc(-c2nc(Cl)c(Cl)cc2Cl)c1 [Compound 99] | 0

system: amaranthus retroflexus; assay: Potted plants live body test; assay type: in vivo; settings: Postemergence spraying; 150 g a.i./ha; 30 days; Table 9
Description: as §1, §2

SMILES | efficiency, amaranthus retroflexus [%]
CON=C(C(=O)OC)c1ccccc1COc1cccc(-c2nc(Cl)c(Cl)cc2Cl)c1 [Compound 99] | 40

same assay, conditions: Pre-emergence soil treatment; 150 g a.i./ha; 30 days; Table 9

SMILES | efficiency, amaranthus retroflexus [%]
CON=C(C(=O)OC)c1ccccc1COc1cccc(-c2nc(Cl)c(Cl)cc2Cl)c1 [Compound 99] | 0

system: Radish; assay: Culture dish method (general screening); assay type: in vivo; settings: 100 mg/L; 7 days; root
Description: as §3

SMILES | inhibition rate, Radish Root [%]
CON=C(C(=O)OC)c1ccccc1COc1cccc(-c2nc(Cl)c(Cl)cc2Cl)c1 [Compound 99] | 60

same assay, conditions: 100 mg/L; 7 days; stem

SMILES | inhibition rate, Radish Stem [%]
CON=C(C(=O)OC)c1ccccc1COc1cccc(-c2nc(Cl)c(Cl)cc2Cl)c1 [Compound 99] | 50

system: Barnyardgrass; assay: Culture dish method (general screening); assay type: in vivo, barnyard grass; settings: 100 mg/L; 7 days; root
Description: as §3

SMILES | inhibition rate, Barnyardgrass Root [%]
CON=C(C(=O)OC)c1ccccc1COc1cccc(-c2nc(Cl)c(Cl)cc2Cl)c1 [Compound 99] | 50

same assay, conditions: 100 mg/L; 7 days; stem

SMILES | inhibition rate, Barnyardgrass Stem [%]
CON=C(C(=O)OC)c1ccccc1COc1cccc(-c2nc(Cl)c(Cl)cc2Cl)c1 [Compound 99] | 0

system: Wheat; assay: Culture dish method (general screening); assay type: in vivo; settings: 100 mg/L; 7 days; root
Description: as §3

SMILES | inhibition rate, Wheat Root [%]
CON=C(C(=O)OC)c1ccccc1COc1cccc(-c2nc(Cl)c(Cl)cc2Cl)c1 [Compound 99] | 30

same assay, conditions: 100 mg/L; 7 days; stem

SMILES | inhibition rate, Wheat Stem [%]
CON=C(C(=O)OC)c1ccccc1COc1cccc(-c2nc(Cl)c(Cl)cc2Cl)c1 [Compound 99] | 0

system: Rape; assay: Culture dish method (general screening); assay type: in vivo; settings: 100 mg/L; 7 days; root
Description: as §3

SMILES | inhibition rate, Rape Root [%]
CON=C(C(=O)OC)c1ccccc1COc1cccc(-c2nc(Cl)c(Cl)cc2Cl)c1 [Compound 99] | 60

same assay, conditions: 100 mg/L; 7 days; stem

SMILES | inhibition rate, Rape Stem [%]
CON=C(C(=O)OC)c1ccccc1COc1cccc(-c2nc(Cl)c(Cl)cc2Cl)c1 [Compound 99] | 30

system: broadleaf weeds such as mustard, small quinoa, Abutilon, Amaranthus retroflexus and Eclipta prostrate; assay: not given; settings: 150 g a.i./ha; 30 days after administration; Table 9 summary
Description: as §1, §2

SMILES | herbicidal activity on broadleaf weeds targets
CON=C(C(=O)OC)c1ccccc1COc1cccc(-c2nc(Cl)c(Cl)cc2Cl)c1 [Compound 99] | herbicidal activity

same assay, conditions: postemergence spraying; 150 g a.i./ha; 30 days; vs clear water control

SMILES | activity on the growth of broadleaf weeds
CON=C(C(=O)OC)c1ccccc1COc1cccc(-c2nc(Cl)c(Cl)cc2Cl)c1 [Compound 99] | inhibitory activity

system: Small quinoa; assay: not given; settings: Postemergence spraying; 150 g a.i./ha; 30 days; Table 9
Description: as §1, §2

SMILES | efficiency, Small quinoa [%]
CON=C(C(=O)OC)c1ccccc1COc1cccc(-c2nc(Cl)c(Cl)cc2Cl)c1 [Compound 99] | 50

same assay, conditions: Pre-emergence soil treatment; 150 g a.i./ha; 30 days; Table 9

SMILES | efficiency, Small quinoa [%]
CON=C(C(=O)OC)c1ccccc1COc1cccc(-c2nc(Cl)c(Cl)cc2Cl)c1 [Compound 99] | 30

system: grass weeds such as crabgrass, barnyard grass, dog point; assay: not given; settings: 150 g a.i./ha; 30 days after administration; Table 9 summary
Description: as §1, §2

SMILES | activity for grass targets such as crabgrass and dog point
CON=C(C(=O)OC)c1ccccc1COc1cccc(-c2nc(Cl)c(Cl)cc2Cl)c1 [Compound 99] | poor activity

same assay, conditions: postemergence spraying; 150 g a.i./ha; 30 days

SMILES | activity on grass weeds such as crabgrass, dog point
CON=C(C(=O)OC)c1ccccc1COc1cccc(-c2nc(Cl)c(Cl)cc2Cl)c1 [Compound 99] | almost have no activity

system: Chinese sorghum; assay: Culture dish method (general screening); assay type: in vivo; settings: 100 mg/L; 7 days; root
Description: as §3

SMILES | inhibition rate, Chinese sorghum Root [%]
CON=C(C(=O)OC)c1ccccc1COc1cccc(-c2nc(Cl)c(Cl)cc2Cl)c1 [Compound 99] | 50

same assay, conditions: 100 mg/L; 7 days; stem

SMILES | inhibition rate, Chinese sorghum Stem [%]
CON=C(C(=O)OC)c1ccccc1COc1cccc(-c2nc(Cl)c(Cl)cc2Cl)c1 [Compound 99] | 50
